Results taken from patent US9771366B2, “Substituted tetrahydropyrido[3′,2′:4,5]pyrrolo[1,2-a]pyrazine-2-carboxamides as RSK inhibitors” (Phoenix Molecular Designs, priority 2016, dated 2017).

Columns and labels:
RSK3 = RSK3 (Homo sapiens (Human), UniProt Q15349); experiment: Radioisotope kinase assay (SignalChem), RSK3; format: biochemical
Experimental: (§1) Radioisotope assays (SignalChem) were performed for the evaluation of the kinase target profiling and all assays were performed in a designated radioactive working area. The kinase targets were RSK1, RSK2, RSK3, RSK4 and MK2. The kinase assays (in duplicate) were performed at 30° C. for 15 minutes in a final volume of 25 μL according to the following assay reaction recipe: • Component 1: 5 μL of diluted active kinase target (100 ng per reaction) • Component 2: 5 μL of peptide substrate (0.5 μg per reaction) (for RSK1, RSK2, RSK3 and RSK4, RSK S6K substrate was used; for MK2, HSP27tide was used) • Component 3: 5 μL of kinase assay buffer • Component 4: 5 μL of compound described herein (various concentrations: 0, 0.1, 1, 10, 100 or 1000 nM or 1, 3, 10, 30, 100, 300 nM) • Component 5: 5 μL of ^33P-ATP (5 μM stock solution, 0.8 μCi; […])
(§2) The assay was initiated by the addition of ^33P-ATP and the reaction mixture incubated at 30° C. for 15 minutes. […] The radioactivity on the P81 plate was counted in the presence of scintillation fluid in a Trilux scintillation counter.
(§3) Blank controls were set up for each target kinase which included all the assay components except the addition of the appropriate substrate (which was replaced with equal volume of assay dilution buffer). The corrected activity for each target kinase was determined by removing the blank control value.

[1] = test system: CD274, the gene that encodes PD-L1; experiment: Immuno-oncology: CD274 expression in JIMT-1 cells; format: cell-based, Human; conditions: 1-20 uM
Excerpt: (§4) A key feature of cancer is low immunogenicity. This can occur by several mechanisms that allow the cells to escape immune recognition. […] HLA-DRA is a member of MHC-II genes and CIITA is the master regulator of MHC II transcription. Thus it was surprising that CIITA, which would be expected to regulate MHC II gene expression, was not altered by RSK inhibition. […] HLA-DRA is important for immune recognition while PD-L1 is involved in immune checkpoints.

[2] = Solubility assessment at 20 mg/ml; format: physicochemical; conditions: for 20 mg/ml Solubility: dissolved in DMSO, diluted in DMEM
Experimental: Solubility is an important property for therapeutic drug candidates. Poor solubility can lead to low bioavailability resulting in suboptimal drug delivery. It can also prevent the evaluation of test agents in animals because the concentration(s) needed to achieve the desired effect cannot be achieved to poor solubility. For solubility assessments, small molecules targeting RSK were compared. For these assessments, 100 mM solutions of the compounds dissolved in DMSO were diluted in DMEM growth media (Life Technologies) supplemented with fetal bovine serum (FBS, Life Technologies) and 100 units/ml penicillin and 100 units/ml streptomycin (Life Technologies) to make 20 mg/ml solutions. Once diluted, the solutions were vortexed and examined for the formation of precipitates. […] For Compound 26, a 100 mM solution of the compound dissolved in DMSO was diluted in phosphate buffered saline (Life Technologies) to make a 20 mg/ml solution. The stock of […] was chosen because this is the upper end of what would be required to dose mice for a range of studies including MTD, PK, PD and efficacy. The pH of this solution was determined to be 2, as previously described. […] At high concentrations some RSK inhibitors were highly soluble while others were not. Compound 0 is (R)—N-(1-benzyl-1H-pyrazol-4-yl)-9-methyl-6-oxo-6,7,8,9-tetrahydropyrido[3′,2′:4,5]pyrrolo[1,2-a]pyrazine-2-carboxamide. Compound 0 was not soluble, whereas Compounds 18, 20, 21, 25 and 26 were soluble under the same conditions (Table 5).

CIITA mRNA = experiment: Immuno-oncology: CIITA mRNA expression; format: cell-based, Human; conditions: MDA-MB-231 and JIMT-1 cells; Compound 16 2 or 4 uM, Compound 18 1, 2, or 4 uM
Excerpt: as §4

[3] = test system: CD274, the gene that encodes PD-L1; experiment: Immuno-oncology: CD274 expression in MDA-MB-231 cells; format: cell-based, Human; conditions: Compound 16 2 or 4 uM, Compound 18 1, 2 or 4 uM
Excerpt: as §4

[4] = test system: phosphorylated Y-box binding protein-1 (YB-1) at serine 102 (P—YB-1S102); experiment: Immunoblotting of phosphorylated YB-1 in MDA-MB-231 cells
Experimental: Following desired experimental conditions, breast cancer cell lines grown and treated in 6 well plates or 100 mm culture dishes (Grenier Bio-One) were placed on ice and the supernatant from each well was removed and the cells were washed in cold PBS. Following removal of PBS, cells were exposed to radioimmunoprecipitation assay (RIPA) buffer (50 mM Tris-HCl (pH 8), 150 mM NaCl, 1% NP-40, 0.5% sodium deoxycholate, 0.1% SDS; Fisher Scientific) supplemented with 1% phosphatase inhibitor (Fisher Scientific) and 1% protease inhibitor (Fisher Scientific) for 10 minutes. Samples were transferred to eppendorf tubes, vortexed and then centrifuged at 14 000 rpm for 10 minutes. Supernatants were collected as whole cell lysates. For mouse tumour tissues, each sample was place in a 35 mm culture dish with complete RIPA lysis buffer. The samples were diced in the buffer on ice with a sterile scalpel (VWR) and the buffer and tissue were transferred to an eppendorf tube. The samples were left on ice for 10 minutes with periodic vortexing every 2 to 3 minutes. The samples were then transferred to a Qiashredder (Qiagen) and centrifuged at 14 000 rpm for 2 minutes. The flow through was transferred to a new eppendorf tube and the samples were centrifuged again at 14 000 rpm for 5 minutes. Supernatants were collected as whole cell lysates.
For the majority of experiments in this study, 30 μg of protein per well was loaded. Samples were then resolved on SDS-PAGE (polyacrylamide gel electrophoresis) using various percentages of acrylamide gels (8%-12%), depending on the proteins of interest. […] For certain immunoblots, bands of proteins of interest were scanned and band intensity ratios were determined by densitometric analysis (ImageJ). […] To assess whether cells are actively undergoing cell death, the activity of poly ADP ribose polymerase (PARP) (1:1000 CST) was also measured using the immunoblotting method.

RSK4 = RSK4 (Homo sapiens (Human), UniProt Q9UK32); experiment: Radioisotope kinase assay (SignalChem), RSK4; format: biochemical
RSK4, sequence (Q9UK32 whole entry): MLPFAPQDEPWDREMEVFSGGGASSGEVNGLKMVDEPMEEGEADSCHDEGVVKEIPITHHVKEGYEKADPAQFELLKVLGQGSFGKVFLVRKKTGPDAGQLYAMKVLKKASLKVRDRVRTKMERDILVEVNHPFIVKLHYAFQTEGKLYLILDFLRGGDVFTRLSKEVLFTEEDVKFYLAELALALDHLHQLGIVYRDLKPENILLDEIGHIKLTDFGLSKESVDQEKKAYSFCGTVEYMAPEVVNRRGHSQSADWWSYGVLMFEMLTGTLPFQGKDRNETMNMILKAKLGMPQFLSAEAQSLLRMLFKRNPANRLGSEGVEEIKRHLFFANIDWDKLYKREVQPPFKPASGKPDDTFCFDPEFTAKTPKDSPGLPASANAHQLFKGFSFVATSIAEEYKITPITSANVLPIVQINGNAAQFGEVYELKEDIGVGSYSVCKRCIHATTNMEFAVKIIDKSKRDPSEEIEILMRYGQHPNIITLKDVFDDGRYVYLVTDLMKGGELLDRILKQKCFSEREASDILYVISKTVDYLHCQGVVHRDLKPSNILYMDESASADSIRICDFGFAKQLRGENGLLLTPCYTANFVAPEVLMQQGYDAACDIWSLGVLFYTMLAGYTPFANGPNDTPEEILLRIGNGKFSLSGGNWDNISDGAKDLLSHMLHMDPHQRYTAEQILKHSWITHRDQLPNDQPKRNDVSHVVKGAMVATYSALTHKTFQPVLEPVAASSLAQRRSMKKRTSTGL
Experimental: as §1, §2, §3

RSK1 = RSK1 (Homo sapiens (Human), UniProt Q15418); experiment: Radioisotope kinase assay (SignalChem), RSK1; format: biochemical
RSK1, sequence (Q15418 whole entry): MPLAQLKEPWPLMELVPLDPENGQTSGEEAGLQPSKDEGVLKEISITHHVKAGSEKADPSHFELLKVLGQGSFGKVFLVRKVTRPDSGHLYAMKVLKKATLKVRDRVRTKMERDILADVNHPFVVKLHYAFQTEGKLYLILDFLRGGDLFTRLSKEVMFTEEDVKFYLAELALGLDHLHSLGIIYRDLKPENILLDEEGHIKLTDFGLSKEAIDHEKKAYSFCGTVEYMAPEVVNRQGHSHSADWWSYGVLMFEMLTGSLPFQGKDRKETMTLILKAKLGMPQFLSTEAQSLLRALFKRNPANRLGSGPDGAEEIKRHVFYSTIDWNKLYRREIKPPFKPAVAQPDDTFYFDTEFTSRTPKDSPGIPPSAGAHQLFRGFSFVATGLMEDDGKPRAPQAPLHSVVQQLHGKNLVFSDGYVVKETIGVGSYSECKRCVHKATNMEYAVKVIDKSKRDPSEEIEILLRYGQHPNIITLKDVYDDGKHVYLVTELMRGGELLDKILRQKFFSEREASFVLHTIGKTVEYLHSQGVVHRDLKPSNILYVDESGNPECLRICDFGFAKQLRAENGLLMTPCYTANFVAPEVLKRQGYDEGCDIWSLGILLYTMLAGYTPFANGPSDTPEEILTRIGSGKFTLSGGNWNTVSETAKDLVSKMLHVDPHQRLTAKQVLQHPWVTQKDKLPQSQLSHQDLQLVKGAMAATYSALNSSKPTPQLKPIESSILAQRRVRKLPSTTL
Experimental: as §1, §2, §3

HLA-DRA mRNA = experiment: Immuno-oncology: HLA-DRA mRNA expression; format: cell-based, Human; conditions: MDA-MB-231 and JIMT-1 cells; Compound 16 2 or 4 uM, Compound 18 1, 2, or 4 uM
Excerpt: as §4

RSK2 = RSK2 (Homo sapiens (Human), UniProt P51812); experiment: Radioisotope kinase assay (SignalChem), RSK2; format: biochemical
RSK2, sequence (P51812 whole entry): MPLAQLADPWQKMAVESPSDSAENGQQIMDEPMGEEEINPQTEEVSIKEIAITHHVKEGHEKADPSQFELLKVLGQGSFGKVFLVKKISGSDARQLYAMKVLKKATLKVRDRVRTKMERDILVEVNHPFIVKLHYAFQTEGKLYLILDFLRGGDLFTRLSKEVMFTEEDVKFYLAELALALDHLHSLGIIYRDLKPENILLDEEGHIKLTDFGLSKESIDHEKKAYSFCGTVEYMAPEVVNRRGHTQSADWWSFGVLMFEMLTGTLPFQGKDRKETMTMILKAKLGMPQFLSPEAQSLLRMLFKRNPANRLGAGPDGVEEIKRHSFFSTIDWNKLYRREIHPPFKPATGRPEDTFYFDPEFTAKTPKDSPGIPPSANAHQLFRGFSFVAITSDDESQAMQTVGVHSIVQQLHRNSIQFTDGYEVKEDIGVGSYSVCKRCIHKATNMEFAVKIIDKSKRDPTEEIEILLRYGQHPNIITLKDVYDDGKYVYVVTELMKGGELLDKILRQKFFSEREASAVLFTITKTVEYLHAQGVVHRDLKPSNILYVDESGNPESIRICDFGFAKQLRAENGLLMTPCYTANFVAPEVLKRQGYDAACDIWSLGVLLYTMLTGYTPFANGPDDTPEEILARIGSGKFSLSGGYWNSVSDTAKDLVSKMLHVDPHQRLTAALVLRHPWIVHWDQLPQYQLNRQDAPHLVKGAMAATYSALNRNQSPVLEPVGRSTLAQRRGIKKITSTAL
Experimental: The assay conditions for the RSK2 kinase target were optimized to yield acceptable enzymatic activity. In addition, the assays were optimized to give high signal-to-noise ratio.
Radioisotope assays (SignalChem) were performed for the evaluation of the kinase target profiling and all assays were performed in a designated radioactive working area. The kinase targets were RSK1, RSK2, RSK3, RSK4 and MK2.
The assay was initiated by the addition of ^33P-ATP and the reaction mixture incubated at 30° C. for 15 minutes. After the incubation period, the assay was terminated by spotting 10 μL of the reaction mixture onto Multiscreen phosphocellulose P81 plate. The Multiscreen phosphocellulose P81 plate was washed 3 times for approximately 15 minutes each in a 1% phosphoric acid solution. The radioactivity on the P81 plate was counted in the presence of scintillation fluid in a Trilux scintillation counter.
as §3

[5] = test system: All cell lines of Tables 6A and 6B; experiment: Monolayer growth inhibition, Alamar blue, range over all cell lines; format: cell-based; conditions: 120 h, read-out: IC50 Values - Alamar Blue (5 Days), Range
Experimental: 1×10^3 cells per well were seeded for a final volume of 200 μl per well and plates were incubated for 5 days at 37° C. in a humidified incubator with 5% CO2. Following the incubation period, cell survival was quantified by Alamar blue assay (Life Technologies). Briefly, media from each well was replaced with 100 μl of phosphate buffer saline (PBS, Life Technologies) and cells were incubated with 5% Alamar blue, which incorporates a propriety redox indicator that changes colour in response to metabolic activity, for up to 2 hours. During this period of incubation, the absorbance at 570 nm and 600 nm was measured at various time points, depending on the cell line or sample. Percent survival was calculated by comparing the absorbance ratio of the test well to the control well multiplied by 100%, as indicated in the following formula:

[6] = test system: All cell lines of Tables 7A and 7B; experiment: Monolayer growth inhibition, crystal violet, range over all cell lines; format: cell-based; conditions: 120 h, read-out: IC50 Values - Crystal Violet (5 Days), Range
[7] = Colony forming unit hematopoietic stem cell assay; format: cell-based, human; conditions: human, CD34+ cells from human cord blood or peripheral blood; at 3.8 uM; read-out: cells viable in the HSC assay
Experimental: The hematopoietic colony forming cell assay was conducted based on a protocol outlined by StemCell Technologies. […] Following the addition of CD34^+ cells isolated from human cord blood or peripheral blood (StemCell Technologies) at a final concentration of 5×10^2 cells per dish, the tubes were vortexed and allowed to stand for 5 minutes at room temperature. Next, the MethoCult mixtures were dispensed into 35 mm dishes (Corning Incorporated) through blunt end needles (StemCell Technologies) and 5 ml syringes (BD Biosciences) at a volume of 1.1 ml per dish. The medium was evenly distributed across the surface of each dish by gentle tilting and rotation. The dishes were then placed in a 100 mm culture dish (Grenier Bio-One) containing additional 35 mm dishes with sterile water to maintain humidity. The culture dish was then placed at 37° C. in a humidified incubator containing 5% CO2 for 13 days. The number of myeloid and erythroid derived colonies in both the treated and control dishes were counted and compared.

RSK3, sequence (Q15349 whole entry): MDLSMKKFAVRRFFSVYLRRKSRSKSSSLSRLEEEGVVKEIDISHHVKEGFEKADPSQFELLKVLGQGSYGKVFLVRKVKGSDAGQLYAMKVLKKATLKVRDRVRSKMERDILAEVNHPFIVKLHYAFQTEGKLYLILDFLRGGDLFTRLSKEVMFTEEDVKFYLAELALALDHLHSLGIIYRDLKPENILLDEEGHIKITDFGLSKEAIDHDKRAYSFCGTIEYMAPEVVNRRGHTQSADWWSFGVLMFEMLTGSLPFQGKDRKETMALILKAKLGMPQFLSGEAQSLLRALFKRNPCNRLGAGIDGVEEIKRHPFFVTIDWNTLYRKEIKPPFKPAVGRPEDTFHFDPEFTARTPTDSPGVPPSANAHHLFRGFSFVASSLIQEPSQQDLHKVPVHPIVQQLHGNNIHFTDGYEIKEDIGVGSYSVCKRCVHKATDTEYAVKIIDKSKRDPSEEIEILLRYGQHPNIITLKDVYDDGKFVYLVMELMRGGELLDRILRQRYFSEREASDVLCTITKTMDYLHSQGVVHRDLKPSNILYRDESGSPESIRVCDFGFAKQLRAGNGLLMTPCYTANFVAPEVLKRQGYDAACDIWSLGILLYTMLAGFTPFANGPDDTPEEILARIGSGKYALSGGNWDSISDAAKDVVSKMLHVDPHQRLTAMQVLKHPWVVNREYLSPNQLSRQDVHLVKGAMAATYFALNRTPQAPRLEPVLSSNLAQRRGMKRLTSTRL

Compound	IC50 (RSK3)	CD274 [1]	pH ([2]; 20 mg/ml solution, DMSO diluted in DMEM)	20 mg/ml Solubility [2]	mRNA expression of CIITA (CIITA mRNA)	levels of CD274 [3]	loss of P—YB-1 ([4]; MDA-MB-231, 0.01, 0.1, 1, or 10 uM, 24 hrs)	loss of P—YB-1 ([4]; MDA-MB-231, 0.01-1 uM, 96 hrs)	IC50 (RSK4)	IC50 (RSK1)	levels of HLA-DRA mRNA (HLA-DRA mRNA)	IC50 (RSK2)	IC50 [5]	IC50 [6]	viability at 13 days, […] [7]
C[C@@H]1CNC(=O)c2cc3ccc(C(=O)Nc4cnn(Cc5ccc(N)cc5)c4)nc3n21 [Compound 18, (R)—N-(1-(4-aminobenzyl)-1H-pyrazol-4-yl)-9-methyl-6-oxo-6,7,8,9-tetrahydropyrido[3′,2′:4,5]pyrrolo[1,2-a]pyrazine-2-carboxamide]	1.7 nM	inhibited	9	Soluble	little effect	reduced	dose dependent loss	dose dependent loss	0.3 nM	2 nM	elevated	12 nM			
C[C@@H]1CNC(=O)c2cc3ccc(C(=O)Nc4cnn(Cc5ccc(F)cc5F)c4)nc3n21 [Compound 23, (R)—N-(1-(2,4-difluorobenzyl)-1H-pyrazol-4-yl)-9-methyl-6-oxo-6,7,8,9-tetrahydropyrido[3′,2′:4,5]pyrrolo[1,2-a]pyrazine-2-carboxamide]				Precipitate									1100 to 19800 nM	1100 to 15000 nM	
C[C@@H]1CNC(=O)c2cc3ccc(NC(=O)c4cnn(Cc5ccccc5)c4)nc3n21 [Compound 15, (R)-1-benzyl-N-(9-methyl-6-oxo-6,7,8,9-tetrahydropyrido[3′,2′:4,5]pyrrolo[1,2-a]pyrazin-2-yl)-1H-pyrazole-4-carboxamide]	6 nM								8 nM	23.6 nM		94 nM			100%
